# According to paper PMC4742234, “Screening of Drug Metabolizing Enzymes for the Ginsenoside Compound K In Vitro: An Efficient Anti-Cancer Substance Originating from Panax Ginseng” (PLoS ONE, 2016):
# pIC50: −log10 of the molar value. “Also recorded” adds a separate entry of the source.
# Columns and labels:
# CYP2A6 = target: T1, CYP2A6 (Homo sapiens, UniProt P11509); test: Inhibition of CYP2A6 (coumarin 7-hydroxylation) by CK in HLMs; assay type: in vitro ADME
# T1 construct: tissue Cypex Ltd. (U.K.); host or cells: pooled human liver microsomes
# T1 sequence (P11509 1-494): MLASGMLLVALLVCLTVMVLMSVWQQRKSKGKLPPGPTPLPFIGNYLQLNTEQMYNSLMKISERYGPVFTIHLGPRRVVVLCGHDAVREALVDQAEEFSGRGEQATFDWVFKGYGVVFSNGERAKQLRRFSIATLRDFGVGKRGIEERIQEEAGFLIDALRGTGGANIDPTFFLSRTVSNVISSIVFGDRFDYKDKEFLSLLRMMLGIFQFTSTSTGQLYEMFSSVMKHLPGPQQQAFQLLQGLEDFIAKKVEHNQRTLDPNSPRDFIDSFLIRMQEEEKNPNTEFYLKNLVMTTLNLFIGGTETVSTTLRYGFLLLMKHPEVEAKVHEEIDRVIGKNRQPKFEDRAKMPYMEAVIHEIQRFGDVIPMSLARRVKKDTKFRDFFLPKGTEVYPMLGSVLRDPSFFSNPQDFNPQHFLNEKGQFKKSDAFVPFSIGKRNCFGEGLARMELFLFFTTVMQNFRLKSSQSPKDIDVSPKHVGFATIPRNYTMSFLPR
# Protocol: The method was conducted according to our previous study with some modifications. The CYP isoform-specific probe reactions used were phenacetin O-deethylation (for CYP1A2), coumarin 7-hydroxylation (for CYP2A6), tolbutamide 4-hydroxylation (for CYP2C9), metoprolol α-hydroxylation (for CYP2D6), chlorzoxazone 6-hydroxylation (for CYP2E1),S-Mephenytoin 4-hydroxylation (for CYP2C19), and midazolam 1-hydroxylation (for CYP3A4). The kinetic study of CK was conducted with HLMs. A 0.2 mL incubation mixture that consisted of CK (as a substrate), the HLMs (0.5 mg/mL) or CYP isoforms (10 pmol), and 0.1 M sodium phosphate buffer (pH 7.4) was pre-warmed for 5 min at 37°C. The reaction was initiated by the addition of 1 mg/mL triphosphopyridine nucleotide (NADPH). All the reagents were dissolved in methanol, and the final solvent concentration in all incubations (including the controls) was 1%. The final incubations were performed in a shaking water bath (37°C) for 30 min. The reactions were stopped by adding 0.2 mL ice-cold acetonitrile, which contains irbesartan (114.9 ng/mL) as the internal standard. The samples were vortexed for 5 min. After centrifugation (12000×g for 10 min), the supernatants were transferred, and aliquots of 20 μL were injected into the HPLC-MS/MS system for analysis.
# CK (10–100 μM) and a single CYP isoform-specific substrate (with a concentration similar to its corresponding Kmvalue) were used to determine the inhibitory effect of CK on specific CYP isoforms as described in detail previously. Substrates including phenacetin, coumarin, tolbutamide, metoprolol, chlorzoxazone, S-Mephenytoin, and midazolam were used at concentrations of 10, 5, 100, 7.5, 40, 100, and 5 μM, respectively. All incubation conditions were the same as mentioned above. The inhibitory effects on the CYP isoforms were investigated individually by incubating the HLMs in the absence or presence of CK. […]
# CYP3A4 = CYP3A4 (Homo sapiens, UniProt P08684); test: Metabolic clearance rate of CK with recombinant CYP3A4 under ketoconazole; assay type: in vitro ADME; design: purchased Cypex Ltd. (U.K.); settings: recombinant CYP3A4, CK 50 μM, ketoconazole 1 μM
# Chain of CYP3A4 (P08684 whole entry, canonical isoform): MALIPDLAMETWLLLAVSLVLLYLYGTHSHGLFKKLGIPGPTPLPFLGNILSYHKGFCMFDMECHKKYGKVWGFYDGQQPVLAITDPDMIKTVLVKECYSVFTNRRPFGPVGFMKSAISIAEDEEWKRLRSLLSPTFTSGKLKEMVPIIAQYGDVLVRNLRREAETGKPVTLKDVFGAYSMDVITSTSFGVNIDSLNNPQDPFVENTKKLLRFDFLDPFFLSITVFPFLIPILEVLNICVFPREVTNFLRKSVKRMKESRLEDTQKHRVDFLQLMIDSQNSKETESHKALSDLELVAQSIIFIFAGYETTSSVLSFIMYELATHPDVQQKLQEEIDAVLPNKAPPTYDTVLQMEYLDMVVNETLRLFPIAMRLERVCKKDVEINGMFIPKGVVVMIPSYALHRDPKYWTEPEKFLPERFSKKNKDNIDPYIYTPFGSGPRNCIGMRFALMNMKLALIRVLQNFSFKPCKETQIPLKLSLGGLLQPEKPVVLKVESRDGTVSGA
# Protocol: The method was conducted according to our previous study with some modifications. The CYP isoform-specific probe reactions used were phenacetin O-deethylation (for CYP1A2), coumarin 7-hydroxylation (for CYP2A6), tolbutamide 4-hydroxylation (for CYP2C9), metoprolol α-hydroxylation (for CYP2D6), chlorzoxazone 6-hydroxylation (for CYP2E1),S-Mephenytoin 4-hydroxylation (for CYP2C19), and midazolam 1-hydroxylation (for CYP3A4). The kinetic study of CK was conducted with HLMs. A 0.2 mL incubation mixture that consisted of CK (as a substrate), the HLMs (0.5 mg/mL) or CYP isoforms (10 pmol), and 0.1 M sodium phosphate buffer (pH 7.4) was pre-warmed for 5 min at 37°C. The reaction was initiated by the addition of 1 mg/mL triphosphopyridine nucleotide (NADPH). […]
# To screen the specific CYP isoform responsible for the CK metabolism, we determined the inhibitory effect of specific inhibitors on the metabolism of CK in the HLMs as described in detail previously. […] The inhibitory effects of the above specific inhibitors on the metabolic clearance rate of CK were evaluated separately to screen the CYP isoforms responsible for the CK metabolism. The relative activity of the CYP isoforms was calculated by dividing the peak area of CK when incubated with the inhibitor by that of CK from the negative controls. […]
smiles,measurement,setting,value
"CC(C)=CCC[C@](C)(OC1O[C@H](CO)[C@@H](O)[C@H](O)[C@H]1O)[C@H]1CC[C@]2(C)[C@@H]1[C@H](O)C[C@@H]1[C@@]3(C)CC[C@H](O)C(C)(C)[C@@H]3CC[C@]12C (stereo partly drawn) [CK, 20-O-β-(D-glucopyranosyl)-20(S)-protopanaxadiol]",inhibitory effect on the activity of CYP2A6,"CYP2A6; HLMs, CK 10–100 μM",minimal; also recorded: negligible
same,pIC50,"CYP2A6; HLMs, coumarin 5 μM, CK 10–100 μM",< 4.00
same,inhibitor potency class for CYP2A6,CYP2A6; classified by IC50 according to Kong et al,"weak (weak, if IC50≥100 μg/mL or ≥50 μM)"
same,"MCR of CK, of that of the control",CYP3A4,13.2%
